We go through 14 compounds from ChEMBL document CHEMBL5137021, “Organotropic dendrons with high potency as HIV-1, HIV-2 and EV-A71 cell entry inhibitors” (Eur J Med Chem, 2022).

Series [1] in a line: Selectivity index, ratio of CC50 for human MT4 cells to EC50 for antiviral activity against HIV-1 NL4.3. It counts as toxicity. Conditions: read-out: Ratio CC50/EC50.
The nature of series [2]: Cytotoxicity against human RD cells assessed as cell viability measured after 5 days by MTS assay. Type of series: toxicity, cell-based. The following applies: time 5 day. For orientation: Formazan colour is commonly taken as a measure of viable cells.
Series [3] has as its system Enterovirus A71. Nature of the series: Antiviral activity against Enterovirus A71 BrCr harboring VP1_P246S mutant infected in RD cells assessed as protection against virus induced cytopatheic effect measured after 5 days by MTS assay. It counts as functional, organism-based.
The nature of series [4]: Cytotoxicity against human MT4 cells assessed as cell viability measured after 5 days by MTS assay. It counts as toxicity, cell-based. The following applies: time 5 day.
Series [5] has as its system Human immunodeficiency virus 2. In words: Antiviral activity against HIV2 ROD infected in human MT4 cells assessed as protection against virus induced cytopatheic effect measured after 5 days by MTS assay. It counts as functional, organism-based. Conditions: Human immunodeficiency virus 2, ROD, MT4, 120 h.
The test system of series [6] is Enterovirus A71. In words: Antiviral activity against Enterovirus A71 BrCr harboring VP1_S184T mutant infected in RD cells assessed as protection against virus induced cytopatheic effect measured after 5 days by MTS assay. It counts as functional, organism-based.
Series [7] relates to Enterovirus A71. Nature of the series: Antiviral activity against EV-A71 infected in RD cells assessed as protection against virus induced cytopatheic effect measured after 5 days by MTS assay. It counts as functional, organism-based. The following applies: Enterovirus A, 120 h.
A short description of series [8]: Selectivity index, ratio of CC50 for human RD cells to EC50 for antiviral activity against EV-A71. Type of series: toxicity. The following applies: read-out: Ratio CC50/EC50.
Series [9] has as its system Enterovirus A71. Nature of the series: Antiviral activity against EV-A71 genotype A BrCr infected in RD cells assessed as protection against virus induced cytopatheic effect measured after 5 days by MTS assay. It counts as functional, organism-based. The following applies: 120 h.
The subject of series [10] is Enterovirus A71. In words: Antiviral activity against Enterovirus A71 BrCr harboring VP1_S184T_P246S mutant infected in RD cells assessed as protection against virus induced cytopatheic effect measured after 5 days by MTS assay. It counts as functional, organism-based.
The subject of series [11] is Human immunodeficiency virus 1. Nature of the series: Antiviral activity against HIV1 NL4-3 infected in human MT4 cells assessed as protection against virus induced cytopatheic effect measured after 5 days by MTS assay. Type of series: functional, organism-based. Conditions: Human immunodeficiency virus 1, NL4-3, MT4, 120 h.

One may read the CC50 as the concentration at which the toxic effect on the cells reaches its halfway point. A word on the EC50: it is the concentration giving half of the maximal effect. With `O=C(CCC(CCC(=O)NC(Cc1c(-c2cc(C(=O)O)cc(C(=O)O)c2)[nH]c2ccccc12)C(=O)O)(CCC(=O)NC(Cc1c(-c2cc(C(=O)O)cc(C(=O)O)c2)[nH]c2ccccc12)C(=O)O)[N+](=O)[O-])NC(Cc1c(-c2cc(C(=O)O)cc(C(=O)O)c2)[nH]c2ccccc12)C(=O)O` (stereo not given), the selectivity ratio in [1] is > 370; in [8], > 103. Besides, the CC50 at 120 h in [2] was > 75000 nM; in [4] it was > 100000 nM. The EC50 in the series on Enterovirus A71 [3] amounted to 1900 nM; in [5] it was 630 nM; in the series on Enterovirus A71 [6] it was 2300 nM; in the series on Enterovirus A71 [7] it was 350 nM; in the series on Enterovirus A71 [9], 353 nM; with Enterovirus A71 [10] it was 2200 nM. In [11], the EC50 came out at 270 nM.

Regarding `NC(CCC(=O)NC(Cc1c(-c2cc(C(=O)O)cc(C(=O)O)c2)[nH]c2ccccc12)C(=O)O)(CCC(=O)NC(Cc1c(-c2cc(C(=O)O)cc(C(=O)O)c2)[nH]c2ccccc12)C(=O)O)CCC(=O)NC(Cc1c(-c2cc(C(=O)O)cc(C(=O)O)c2)[nH]c2ccccc12)C(=O)O` (stereo not given), the selectivity ratio is > 109 in series [1] and > 133 in series [8]. For the same compound, the half-maximal cytotoxic concentration (CC50) at 120 h in series [2] is > 100000 nM; in series [4], > 50000 nM. For the same compound, the figures for the EC50 (in [5]; in the series on Enterovirus A71 [7]; in series [11]) were 100 nM, 750 nM and 460 nM, respectively.

`O=C(CCC(CCC(=O)NC(Cc1c(-c2cc(C(=O)O)cc(C(=O)O)c2)[nH]c2ccccc12)C(=O)O)(CCC(=O)NC(Cc1c(-c2cc(C(=O)O)cc(C(=O)O)c2)[nH]c2ccccc12)C(=O)O)NC(=O)Nc1ccc2c(c1)Cc1ccccc1-2)NC(Cc1c(-c2cc(C(=O)O)cc(C(=O)O)c2)[nH]c2ccccc12)C(=O)O` (stereo not given): the selectivity ratio in [1] was > 1670; in [8] it was > 400. Besides, the CC50 at 120 h in series [2] and in [4] was > 100000 nM in each case. For the same compound, the results for the EC50 (in series [5]; with Enterovirus A71 [7]; in series [11]) were 50 nM, 250 nM and 60 nM, respectively.

Turning to `O=C(CCC(CCC(=O)NC(Cc1c(-c2cc(C(=O)O)cc(C(=O)O)c2)[nH]c2ccccc12)C(=O)O)(CCC(=O)NC(Cc1c(-c2cc(C(=O)O)cc(C(=O)O)c2)[nH]c2ccccc12)C(=O)O)NC(=O)Nc1ccc2ccccc2c1)NC(Cc1c(-c2cc(C(=O)O)cc(C(=O)O)c2)[nH]c2ccccc12)C(=O)O` (stereo not given), the figures for the selectivity ratio in [1] and in series [8] were > 263 and > 70, respectively. The figures for the CC50 at 120 h in series [2] and in series [4] were > 68000 nM and > 100000 nM, respectively. The results for the EC50 (in series [5]; in the series with Enterovirus A71 [7]; in series [11]) were 220 nM, 970 nM and 380 nM, respectively.

Take `O=C(CCC(CCC(=O)NC(Cc1c(-c2cc(C(=O)O)cc(C(=O)O)c2)[nH]c2ccccc12)C(=O)O)(CCC(=O)NC(Cc1c(-c2cc(C(=O)O)cc(C(=O)O)c2)[nH]c2ccccc12)C(=O)O)NC(=O)CCCCNC(=O)Nc1cc(C(=O)O)cc(C(=O)O)c1)NC(Cc1c(-c2cc(C(=O)O)cc(C(=O)O)c2)[nH]c2ccccc12)C(=O)O` (stereo not given): the selectivity ratio is > 500 in [1] and > 2000 in series [8]. The CC50 at 120 h was > 300000 nM in [2] and > 100000 nM in series [4]. Moreover, the concentration for a half-maximal effect (EC50) in [5] came out at 40 nM; in the series with Enterovirus A71 [7] it was 150 nM; in [11], 200 nM.

As for `O=C(CCC(CCC(=O)N[C@@H](Cc1c[nH]c2ccccc12)C(=O)O)(CCC(=O)N[C@@H](Cc1c[nH]c2ccccc12)C(=O)O)NC(=O)CCOCC(COCCC(=O)NC(CCC(=O)N[C@@H](Cc1c[nH]c2ccccc12)C(=O)O)(CCC(=O)N[C@@H](Cc1c[nH]c2ccccc12)C(=O)O)CCC(=O)N[C@@H](Cc1c[nH]c2ccccc12)C(=O)O)(COCCC(=O)NC(CCC(=O)N[C@@H](Cc1c[nH]c2ccccc12)C(=O)O)(CCC(=O)N[C@@H](Cc1c[nH]c2ccccc12)C(=O)O)CCC(=O)N[C@@H](Cc1c[nH]c2ccccc12)C(=O)O)COCCC(=O)NC(CCC(=O)N[C@@H](Cc1c[nH]c2ccccc12)C(=O)O)(CCC(=O)N[C@@H](Cc1c[nH]c2ccccc12)C(=O)O)CCC(=O)N[C@@H](Cc1c[nH]c2ccccc12)C(=O)O)N[C@@H](Cc1cc2ccccc2[nH]1)C(=O)O`, the selectivity ratio in series [1] was > 43; in series [8], > 203. For the same compound, the CC50 at 120 h in [2] is 25000 nM; in series [4], > 100000 nM. For the same compound, the EC50 came out at 4700 nM with Enterovirus A71 [3]; 6600 nM in [5]; 2000 nM with Enterovirus A71 [6]; 300 nM in the series with Enterovirus A71 [7]; 8900 nM in the series on Enterovirus A71 [10]; 2300 nM in [11].

Consider `O=C(CCC(CCC(=O)NC(Cc1c(-c2cc(C(=O)O)cc(C(=O)O)c2)[nH]c2ccccc12)C(=O)O)(CCC(=O)NC(Cc1c(-c2cc(C(=O)O)cc(C(=O)O)c2)[nH]c2ccccc12)C(=O)O)NC(=O)CCCCCCNC(=O)c1cc(O)c2c(c1)C(=O)c1cccc(O)c1C2=O)NC(Cc1c(-c2cc(C(=O)O)cc(C(=O)O)c2)[nH]c2ccccc12)C(=O)O` (stereo not given), for which the selectivity ratio in series [1] is > 32; in series [8] it was > 69. Further, the cytotoxic concentration (CC50) at 120 h in series [2] and in series [4] was > 100000 nM each time. Further, the EC50 came to 710 nM in [5], 1430 nM in the series with Enterovirus A71 [7] and 3110 nM in [11].

Turning to `O=C(CCC(CCC(=O)NC(Cc1c(-c2cc(C(=O)O)cc(C(=O)O)c2)[nH]c2ccccc12)C(=O)O)(CCC(=O)NC(Cc1c(-c2cc(C(=O)O)cc(C(=O)O)c2)[nH]c2ccccc12)C(=O)O)NC(=O)Nc1cccc(C(=O)O)c1)NC(Cc1c(-c2cc(C(=O)O)cc(C(=O)O)c2)[nH]c2ccccc12)C(=O)O` (stereo not given), the selectivity ratio was > 141 in series [1] and > 142 in series [8]. The figures for the CC50 at 120 h in series [2] and in series [4] were > 68000 nM and > 100000 nM, respectively. Further, the concentration for a half-maximal effect (EC50) in series [5] worked out at 110 nM; in the series on Enterovirus A71 [7] it was 480 nM; in series [11] it was 710 nM.

`O=C(CCC(CCC(=O)NC(Cc1c(-c2cc(C(=O)O)cc(C(=O)O)c2)[nH]c2ccccc12)C(=O)O)(CCC(=O)NC(Cc1c(-c2cc(C(=O)O)cc(C(=O)O)c2)[nH]c2ccccc12)C(=O)O)NC(=O)CCCCCCCCCCNC(=O)Nc1cc(C(=O)O)cc(C(=O)O)c1)NC(Cc1c(-c2cc(C(=O)O)cc(C(=O)O)c2)[nH]c2ccccc12)C(=O)O` (stereo not given): the selectivity ratio in [1] is > 25; in series [8], > 72. Further, the 50% cytotoxic concentration (CC50) at 120 h in series [2] and in series [4] was > 100000 nM each time. The results for the concentration giving a half-maximal response (EC50) (in [5]; with Enterovirus A71 [7]; in [11]) were 960 nM, 1380 nM and 3990 nM, respectively.

For the compound `O=C(CCC(CCC(=O)NC(Cc1c(-c2cc(C(=O)O)cc(C(=O)O)c2)[nH]c2ccccc12)C(=O)O)(CCC(=O)NC(Cc1c(-c2cc(C(=O)O)cc(C(=O)O)c2)[nH]c2ccccc12)C(=O)O)NC(=O)COCCOCCNc1ccc([N+](=O)[O-])cc1[N+](=O)[O-])NC(=O)Cc1c(-c2cc(C(=O)O)cc(C(=O)O)c2)[nH]c2ccccc12` (stereo not given), the selectivity ratio is > 12 in series [1] and > 103 in [8]. In addition, the CC50 at 120 h in series [2] and in series [4] was > 100000 nM each time. The values for the EC50 (in series [5]; in the series with Enterovirus A71 [7]; in series [11]) were 560 nM, 970 nM and 8390 nM, respectively.

Consider `O=C(CCC(CCC(=O)NC(Cc1c(-c2cc(C(=O)O)cc(C(=O)O)c2)[nH]c2ccccc12)C(=O)O)(CCC(=O)NC(Cc1c(-c2cc(C(=O)O)cc(C(=O)O)c2)[nH]c2ccccc12)C(=O)O)NC(=O)CCCCNc1ccc([N+](=O)[O-])cc1[N+](=O)[O-])NC(Cc1c(-c2cc(C(=O)O)cc(C(=O)O)c2)[nH]c2ccccc12)C(=O)O` (stereo not given), for which the selectivity ratio in series [1] was > 28; in series [8], > 93. Moreover, the CC50 at 120 h in series [2] and in series [4] was > 100000 nM each time. In addition, the EC50 in series [5] came to 130 nM; with Enterovirus A71 [7], 1070 nM; in [11], 3610 nM.

In the case of `O=C(CCC(CCC(=O)NC(Cc1c(-c2cc(C(=O)O)cc(C(=O)O)c2)[nH]c2ccccc12)C(=O)O)(CCC(=O)NC(Cc1c(-c2cc(C(=O)O)cc(C(=O)O)c2)[nH]c2ccccc12)C(=O)O)NC(=O)Nc1cc(C(=O)O)cc(C(=O)O)c1)NC(Cc1c(-c2cc(C(=O)O)cc(C(=O)O)c2)[nH]c2ccccc12)C(=O)O` (stereo not given), the selectivity ratio was > 345 in series [1] and > 150 in series [8]. Moreover, the 50% cytotoxic concentration (CC50) at 120 h in [2] was > 60000 nM; in series [4] it was > 100000 nM. Further, the EC50 amounted to 90 nM in series [5], 400 nM in the series on Enterovirus A71 [7] and 290 nM in [11].

Consider `CCOC(=O)c1ccc(OCCC2CCN(c3ccc(C)nn3)CC2)cc1` [PIRODAVIR], for which the CC50 at 120 h in series [2] is > 100000 nM. Besides, the selectivity ratio in [8] is > 333.

`CN[C@@H]1[C@H](O[C@@H]2OC[C@@H](O)[C@H](O)[C@H]2O)[C@@H](O)[C@H](O[C@H]2c3cc(C)c(C(=O)N[C@H](C)C(=O)O)c(O)c3-c3c(cc4c(c3O)C(=O)c3cc(OC)cc(O)c3C4=O)[C@@H]2O)O[C@@H]1C` [PRADIMICIN A]: the selectivity ratio in [1] was > 30. In addition, the CC50 at 120 h in series [4] was > 100000 nM.
